Assays:
[1] = TEASE-1 plasma gildeuretinol (replacement of plasma vitamin A); type: in vivo, human; conditions: for percentage of gildeuretinol over total vitamin A (as retinol+gildeuretinol): plasma, 8-week pharmacokinetic analysis
Method: The Tolerability and Effects of gildeuretinol acetate in Stargardt Disease (Clinical trial group 1, also known as TEASE-1) was a 24-month, multicenter, double-masked, placebo-controlled trial designed to evaluate the efficacy and safety of daily oral gildeuretinol acetate in slowing the growth of atrophic retinal lesions in Stargardt disease patients. The trial was conducted at multiple sites in the United States (NCT02402660).
Patients 12 years or older, clinically diagnosed with Stargardt disease, with at least one ABCA4 mutation, at least one eye presenting with well-demarcated areas of reduced fundus autofluorescence including retinal atrophic lesions, and with any visual acuity, were enrolled.
Patients were randomized to gildeuretinol acetate 14 mg capsules, gildeuretinol acetate 24 mg capsules, or placebo capsules, to be taken once daily for one year. After one year, 50% of randomly selected patients receiving placebo were crossed over in a 1:1 ratio to gildeuretinol acetate 14 mg capsules or gildeuretinol acetate 24 mg capsules for a second year.
Gildeuretinol acetate and placebo capsules were identical appearing capsules. Patients were advised to avoid vitamin A-containing supplements and liver-based products. Fruits and vegetables could be consumed without limitation. Trial visits occurred at 8 weeks and 6, 12, 18, and 24 months following screening and randomization.

[2] = test system: asymptomatic Stargardt disease patients; assay: TEASE-3 retinal sensitivity by fundus-tracking microperimetry; type: in vivo, human
Method: FIG. 4 is a graph showing mean retinal sensitivity (dB) over time in three asymptomatic Stargardt disease patients taking gildeuretinol acetate 14 mg daily. Lines show mean retinal sensitivity of both eyes. Lines are piecewise linear regressions with a knot time of 12 months. Each symbol represents a retinal sensitivity measurement for each eye. Patient 1 retinal sensitivity was measured with a Nidek MP-1 (Nidek, Gamagori, Japan). Patients 2 and 3 retinal sensitivity was measured with the Center Vue Macular Integrity Assessment or MAIA (CenterVue, Padova, Italy).
The tolerability and effects of ALK-001 (gildeuretinol acetate) in Stargardt Disease (Clinical trial group 3, also known as TEASE-3) study was an open-label, multicenter, case control study designed to evaluate the efficacy and safety of gildeuretinol acetate on the progression of Stargardt disease in asymptomatic individuals. The trial was conducted at multiple sites in the United States.
Patients received gildeuretinol acetate 14 mg capsules, to be taken orally once daily. […]
Disease progression was monitored by best-corrected visual acuity (BCVA) reported in number of Early Treatment Diabetic Retinopathy Study (ETDRS) letters, fundus autofluorescence (FAF) imaging, loss of photoreceptors (as measured by the ellipsoid zone band loss) by optical coherence tomography (OCT) and retinal sensitivity by microperimetry. […]

[2H]C([2H])([2H])C(/C=C/C=C(C)/C=C/C1=C(C)CCCC1(C)C)=C\COC(C)=O [gildeuretinol acetate]
replacement of plasma vitamin A sustained throughout the treatment period ([1]; 14 or 24 mg daily, 24 months): greater than 80%
patients in whom over 80% of plasma vitamin A was replaced ([1]; after six months): 39 out of 40
serum vitamin A replaced with gildeuretinol ([1]; daily doses approximately 14 to 24 mg, within a matter of weeks): more than 80%
total plasma vitamin A and retinoic acid (combined vitamin A and gildeuretinol-derived forms) versus placebo group ([1]; in vivo): the same
percentage of gildeuretinol over total vitamin A (as retinol+gildeuretinol) ([1]; 14 mg cohort): 87%
percentage of gildeuretinol over total vitamin A (as retinol+gildeuretinol) ([1]; 24 mg cohort): 92%
change of mean retinal sensitivity ([2]; first year of treatment): −3.1±1.5 dB/year
average rate of retinal sensitivity improvement ([2]; following years of treatment): +0.93±0.7 dB/year
